This note sets out measurements from publication PMC2649375 (Journal of molecular neuroscience : MN, 2006).

Where a chain is given by its changes, count along the chain named.

Test [1] addresses T1, R344H mutant 5-HT3 receptor (Mus musculus, UniProt P23979, R349H).
T1 sequence (P23979 24-483 isoform P23979-2 R349H limits assumed): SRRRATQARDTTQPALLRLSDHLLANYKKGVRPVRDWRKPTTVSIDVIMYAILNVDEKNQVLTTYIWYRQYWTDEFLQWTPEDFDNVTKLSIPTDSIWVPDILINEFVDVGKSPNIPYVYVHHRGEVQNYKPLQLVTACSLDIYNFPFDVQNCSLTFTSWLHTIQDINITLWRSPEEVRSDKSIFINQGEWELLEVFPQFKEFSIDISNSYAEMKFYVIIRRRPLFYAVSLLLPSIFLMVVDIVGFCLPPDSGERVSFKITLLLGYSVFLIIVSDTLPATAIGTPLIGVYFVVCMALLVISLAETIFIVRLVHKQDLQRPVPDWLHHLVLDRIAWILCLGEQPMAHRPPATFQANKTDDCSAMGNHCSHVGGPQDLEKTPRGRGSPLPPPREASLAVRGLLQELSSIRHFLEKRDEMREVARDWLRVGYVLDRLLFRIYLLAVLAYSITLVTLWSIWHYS
The conditions noted are these: maximum number of binding sites, n = 9.

Test [2] addresses T2, P391R mutant 5-HT3 receptor (Mus musculus, UniProt P23979, P402R).
T2 sequence (P23979 24-483 isoform P23979-2 P396R limits assumed): T1 sequence (P23979 24-483 isoform P23979-2 R349H limits assumed) with H326R, P373R
The conditions noted are these: maximum number of binding sites, n = 5.

The target in another test is T3, wild-type 5-HT3 receptor (Mus musculus, UniProt P23979).
T3 sequence (P23979 24-483 isoform P23979-2 limits assumed): T1 sequence (P23979 24-483 isoform P23979-2 R349H limits assumed) with H326R
The following applies: maximum number of binding sites, n = 5.

Consider `CN1C2CCCC1CC(NC(=O)c1nn(C)c3ccccc13)C2` (stereo not drawn) [[^3H]Granisetron], for which the values for the Bmax (in test [1]; in test [2]; at wild-type 5-HT3 receptor) were 853 ± 232 fmol/mg, 353 ± 113 fmol/mg and 567 ± 149 fmol/mg, respectively.
